Activity calls are given as the source filed them. No cut-off for these calls is given here.
Columns and labels:
[1] = target: T1, Taste receptor type 2 member 16 (Homo sapiens) (UniProt Q9NYV7); experiment: Activation of full-length human TAS2R16 expressed in HEK293T/Galpha16-gustducin 44 cells assessed as effect on calcium flux by measuring deltaF/F0 ratio at 0.0391 mM by Fluo-4 dye based FLIPR assay; format: functional, cell-based
T1 sequence (whole entry): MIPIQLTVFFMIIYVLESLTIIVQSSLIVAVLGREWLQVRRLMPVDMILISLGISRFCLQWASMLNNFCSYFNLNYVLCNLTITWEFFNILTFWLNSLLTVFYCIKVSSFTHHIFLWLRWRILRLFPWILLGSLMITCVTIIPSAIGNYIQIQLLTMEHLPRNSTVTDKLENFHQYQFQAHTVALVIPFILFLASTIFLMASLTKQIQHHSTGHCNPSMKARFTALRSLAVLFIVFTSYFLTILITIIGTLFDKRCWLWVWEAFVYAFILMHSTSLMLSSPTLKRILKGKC

[2] = target: T1, Taste receptor type 2 member 16 (Homo sapiens); experiment: Activation of full-length human TAS2R16 expressed in HEK293T/Galpha16-gustducin 44 cells assessed as effect on calcium flux by measuring deltaF/F0 ratio at 0.3125 mM by Fluo-4 dye based FLIPR assay; format: functional, cell-based
[3] = target: T2, Taste receptor type 2 member 16 (Homo sapiens, UniProt Q9NYV7); experiment: Activation of full-length human TAS2R16 expressed in HEK293T/Galpha16-gustducin 44 cells assessed as stimulation of calcium flux by measuring deltaF/F0 ratio by Fluo-4 dye based FLIPR assay; format: functional, cell-based
T2 sequence (Q9NYV7 whole entry): T1 sequence (whole entry)

[4] = target: T1, Taste receptor type 2 member 16 (Homo sapiens); experiment: Activation of full-length human TAS2R16 expressed in HEK293T/Galpha16-gustducin 44 cells assessed as effect on calcium flux by measuring deltaF/F0 ratio at 2.5 mM by Fluo-4 dye based FLIPR assay; format: functional, cell-based
[5] = target: T1, Taste receptor type 2 member 16 (Homo sapiens); experiment: Activation of full-length human TAS2R16 expressed in HEK293T/Galpha16-gustducin 44 cells assessed as effect on calcium flux by measuring deltaF/F0 ratio at 10 mM by Fluo-4 dye based FLIPR assay; format: functional, cell-based
[6] = target: T1, Taste receptor type 2 member 16 (Homo sapiens); experiment: Activation of full-length human TAS2R16 expressed in HEK293T/Galpha16-gustducin 44 cells assessed as effect on calcium flux by measuring deltaF/F0 ratio at 0.0781 mM by Fluo-4 dye based FLIPR assay; format: functional, cell-based
[7] = target: T1, Taste receptor type 2 member 16 (Homo sapiens); experiment: Activation of full-length human TAS2R16 expressed in HEK293T/Galpha16-gustducin 44 cells assessed as effect on calcium flux by measuring deltaF/F0 ratio at 0.1563 mM by Fluo-4 dye based FLIPR assay; format: functional, cell-based
[8] = target: T1, Taste receptor type 2 member 16 (Homo sapiens); experiment: Activation of full-length human TAS2R16 expressed in HEK293T/Galpha16-gustducin 44 cells assessed as effect on calcium flux by measuring deltaF/F0 ratio at 0.625 mM by Fluo-4 dye based FLIPR assay; format: functional, cell-based
[9] = target: T1, Taste receptor type 2 member 16 (Homo sapiens); experiment: Activation of full-length human TAS2R16 expressed in HEK293T/Galpha16-gustducin 44 cells assessed as effect on calcium flux by measuring deltaF/F0 ratio at 5 mM by Fluo-4 dye based FLIPR assay; format: functional, cell-based
[10] = target: T1, Taste receptor type 2 member 16 (Homo sapiens); experiment: Activation of full-length human TAS2R16 expressed in HEK293T/Galpha16-gustducin 44 cells assessed as effect on calcium flux by measuring deltaF/F0 ratio at 1.25 mM by Fluo-4 dye based FLIPR assay; format: functional, cell-based
[11] = target: T1, Taste receptor type 2 member 16 (Homo sapiens); experiment: Antagonist activity at full-length human TAS2R16 expressed in HEK293T/Galpha16-gustducin 44 cells assessed as effect on calcium flux by measuring deltaF/F0 ratio at 25 uM in presence of 0.1563 mM phenyl-beta-glucopyranoside by Fluo-4 dye based FLIPR assay; format: functional, cell-based
[12] = target: T1, Taste receptor type 2 member 16 (Homo sapiens); experiment: Antagonist activity at full-length human TAS2R16 expressed in HEK293T/Galpha16-gustducin 44 cells assessed as effect on calcium flux by measuring deltaF/F0 ratio at 25 uM in presence of 10 mM phenyl-beta-glucopyranoside by Fluo-4 dye based FLIPR assay; format: functional, cell-based
[13] = target: T3, Taste receptor type 2 member 31 (Homo sapiens) (UniProt P59538); experiment: Antagonist activity at full-length human TAS2R44 expressed in HEK293T/Galpha16-gustducin 44 cells assessed as effect on calcium flux by measuring deltaF/F0 ratio at 25 uM in presence of 1.5625 mM sucralose by Fluo-4 dye based FLIPR assay (reference value: 0.042 +/- 0.039); format: functional, cell-based
T3 sequence (whole entry): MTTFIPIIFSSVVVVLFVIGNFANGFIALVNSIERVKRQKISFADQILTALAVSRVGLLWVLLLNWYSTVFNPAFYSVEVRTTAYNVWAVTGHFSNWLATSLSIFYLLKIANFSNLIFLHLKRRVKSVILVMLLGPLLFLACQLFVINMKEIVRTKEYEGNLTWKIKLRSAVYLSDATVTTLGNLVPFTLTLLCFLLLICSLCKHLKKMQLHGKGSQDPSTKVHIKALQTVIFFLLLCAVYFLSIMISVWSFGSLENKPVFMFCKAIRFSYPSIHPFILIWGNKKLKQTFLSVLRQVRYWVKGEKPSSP

[14] = target: T3, Taste receptor type 2 member 31 (Homo sapiens); experiment: Antagonist activity at full-length human TAS2R44 expressed in HEK293T/Galpha16-gustducin 44 cells assessed as effect on calcium flux by measuring deltaF/F0 ratio at 25 uM in presence of 25 mM sucralose by Fluo-4 dye based FLIPR assay (reference value: 0.110 +/- 0.019); format: functional, cell-based
[15] = target: T3, Taste receptor type 2 member 31 (Homo sapiens); experiment: Antagonist activity at full-length human TAS2R44 expressed in HEK293T/Galpha16-gustducin 44 cells assessed as effect on calcium flux by measuring deltaF/F0 ratio at 25 uM in presence of 12.5 mM sucralose by Fluo-4 dye based FLIPR assay (reference value: 0.051 +/- 0.004); format: functional, cell-based
[16] = target: T3, Taste receptor type 2 member 31 (Homo sapiens); experiment: Antagonist activity at full-length human TAS2R44 expressed in HEK293T/Galpha16-gustducin 44 cells assessed as effect on calcium flux by measuring deltaF/F0 ratio at 25 uM in presence of 3.125 mM sucralose by Fluo-4 dye based FLIPR assay (reference value: 0.030 +/- 0.042); format: functional, cell-based
[17] = target: T1, Taste receptor type 2 member 16 (Homo sapiens); experiment: Antagonist activity at full-length human TAS2R16 expressed in HEK293T/Galpha16-gustducin 44 cells assessed as effect on calcium flux by measuring deltaF/F0 ratio at 25 uM in presence of 2.5 mM phenyl-beta-glucopyranoside by Fluo-4 dye based FLIPR assay; format: functional, cell-based
[18] = target: T3, Taste receptor type 2 member 31 (Homo sapiens); experiment: Antagonist activity at full-length human TAS2R44 expressed in HEK293T/Galpha16-gustducin 44 cells assessed as effect on calcium flux by measuring deltaF/F0 ratio at 25 uM in presence of 100 mM sucralose by Fluo-4 dye based FLIPR assay (reference value: 0.352 +/- 0.030); format: functional, cell-based
[19] = target: T3, Taste receptor type 2 member 31 (Homo sapiens); experiment: Antagonist activity at full-length human TAS2R44 expressed in HEK293T/Galpha16-gustducin 44 cells assessed as effect on calcium flux by measuring deltaF/F0 ratio at 25 uM in presence of 50 mM sucralose by Fluo-4 dye based FLIPR assay (reference value: 0.192 +/- 0.011); format: functional, cell-based
[20] = species: Homo sapiens; experiment: Inhibition of 3 mM sucralose-induced bitter sensitivity in bitter sensitive human panelists tasting solution containing 3 mM sucralose with 13 ppm test compound; format: functional, organism-based
[21] = target: T3, Taste receptor type 2 member 31 (Homo sapiens); experiment: Antagonist activity at full-length human TAS2R44 expressed in HEK293T/Galpha16-gustducin 44 cells assessed as effect on calcium flux by measuring deltaF/F0 ratio at 25 uM in presence of 6.25 mM sucralose by Fluo-4 dye based FLIPR assay (reference value: 0.027 +/- 0.029); format: functional, cell-based
[22] = target: T3, Taste receptor type 2 member 31 (Homo sapiens); experiment: Antagonist activity at full-length human TAS2R44 expressed in HEK293T/Galpha16-gustducin 44 cells assessed as effect on calcium flux by measuring deltaF/F0 ratio at 25 uM in presence of 0.3906 mM sucralose by Fluo-4 dye based FLIPR assay (reference value: 0.046 +/- 0.048); format: functional, cell-based
[23] = target: T1, Taste receptor type 2 member 16 (Homo sapiens); experiment: Antagonist activity at full-length human TAS2R16 expressed in HEK293T/Galpha16-gustducin 44 cells assessed as effect on calcium flux by measuring deltaF/F0 ratio at 25 uM in presence of 0.3125 mM phenyl-beta-glucopyranoside by Fluo-4 dye based FLIPR assay; format: functional, cell-based
[24] = target: T1, Taste receptor type 2 member 16 (Homo sapiens); experiment: Antagonist activity at full-length human TAS2R16 expressed in HEK293T/Galpha16-gustducin 44 cells assessed as effect on calcium flux by measuring deltaF/F0 ratio at 25 uM in presence of 5 mM phenyl-beta-glucopyranoside by Fluo-4 dye based FLIPR assay; format: functional, cell-based
[25] = target: T1, Taste receptor type 2 member 16 (Homo sapiens); experiment: Antagonist activity at full-length human TAS2R16 expressed in HEK293T/Galpha16-gustducin 44 cells assessed as effect on calcium flux by measuring deltaF/F0 ratio at 25 uM in presence of 0.0781 mM phenyl-beta-glucopyranoside by Fluo-4 dye based FLIPR assay; format: functional, cell-based
[26] = target: T1, Taste receptor type 2 member 16 (Homo sapiens); experiment: Antagonist activity at full-length human TAS2R16 expressed in HEK293T/Galpha16-gustducin 44 cells assessed as effect on calcium flux by measuring deltaF/F0 ratio at 25 uM in presence of 0.625 mM phenyl-beta-glucopyranoside by Fluo-4 dye based FLIPR assay; format: functional, cell-based
[27] = target: T1, Taste receptor type 2 member 16 (Homo sapiens); experiment: Antagonist activity at full-length human TAS2R16 expressed in HEK293T/Galpha16-gustducin 44 cells assessed as effect on calcium flux by measuring deltaF/F0 ratio at 25 uM in presence of 1.25 mM phenyl-beta-glucopyranoside by Fluo-4 dye based FLIPR assay; format: functional, cell-based
[28] = target: T1, Taste receptor type 2 member 16 (Homo sapiens); experiment: Antagonist activity at full-length human TAS2R16 expressed in HEK293T/Galpha16-gustducin 44 cells assessed as effect on calcium flux by measuring deltaF/F0 ratio at 25 uM in presence of 0.0391 mM phenyl-beta-glucopyranoside by Fluo-4 dye based FLIPR assay; format: functional, cell-based
[29] = target: T3, Taste receptor type 2 member 31 (Homo sapiens); experiment: Antagonist activity at full-length human TAS2R44 expressed in HEK293T/Galpha16-gustducin 44 cells assessed as effect on calcium flux by measuring deltaF/F0 ratio at 25 uM in presence of 0.7813 mM sucralose by Fluo-4 dye based FLIPR assay (reference value: 0.038 +/- 0.042); format: functional, cell-based
[30] = system: HEK-293T; experiment: Effect on calcium flux in HEK293T/Galpha16-gustducin 44 cells assessed as effect on calcium flux by measuring deltaF/F0 ratio at 25 uM in presence of 100 mM sucralose by Fluo-4 dye based FLIPR assay (reference value: -0.179 +/- 0.023); format: functional, Homo sapiens
[31] = target: T4, Taste receptor type 2 member 1 (Homo sapiens) (UniProt Q9NYW7); experiment: Antagonist activity at full-length human TAS2R1 expressed in HEK293T/Galpha16-gustducin 44 cells assessed as inhibition of sucralose-induced calcium flux at 25 uM by Fluo-4 dye based FLIPR assay; format: functional, cell-based
T4 sequence (whole entry): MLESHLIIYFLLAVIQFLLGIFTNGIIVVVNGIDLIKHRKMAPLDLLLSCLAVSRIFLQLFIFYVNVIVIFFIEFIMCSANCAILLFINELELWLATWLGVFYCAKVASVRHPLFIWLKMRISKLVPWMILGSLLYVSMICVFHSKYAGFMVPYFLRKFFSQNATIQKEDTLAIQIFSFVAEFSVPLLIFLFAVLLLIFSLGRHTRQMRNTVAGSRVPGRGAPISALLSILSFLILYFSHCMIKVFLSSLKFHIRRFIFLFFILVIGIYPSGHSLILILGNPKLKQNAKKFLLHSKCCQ

[32] = target: T1, Taste receptor type 2 member 16 (Homo sapiens); experiment: Antagonist activity at full-length human TAS2R16 expressed in HEK293T/Galpha16-gustducin 44 cells assessed as inhibition of P-beta-G-induced calcium flux by measuring P-beta-G EC50 at 25 uM by Fluo-4 dye based FLIPR assay; format: functional, cell-based

## OC[C@H]1O[C@@H](Oc2ccccc2)[C@H](O)[C@@H](O)[C@@H]1O
[1]
  Ratio: 0.012
[2]
  Ratio: 1.81
[3]
  EC50: 210 µM
[4]
  Ratio: 2.58
[5]
  Ratio: 2.88
[6]
  Ratio: 0.213
[7]
  Ratio: 0.926
[8]
  Ratio: 2.28
[9]
  Ratio: 2.69
[10]
  Ratio: 2.36

## CC1=CCC(C/C=C/C(=O)O)C1(C)C (centres undefined)
[11]
  Ratio: 0.702
[12]
  Ratio: 2.83
[13]
  Ratio: 0.016
[14]
  Ratio: -0.035
[15]
  Ratio: -0.015
[16]
  Ratio: 0.005
[17]
  Ratio: 2.48
[18]
  Ratio: 0.107
[19]
  Ratio: -0.025
[20]
  inhibition: Active
[21]
  Ratio: 0
[22]
  Ratio: 0.011
[23]
  Ratio: 1.55
[24]
  Ratio: 2.65
[25]
  Ratio: 0.108
[26]
  Ratio: 2.14
[27]
  Ratio: 2.37
[28]
  Ratio: -0.013
[29]
  Ratio: 0.01
[30]
  Ratio: -0.175
[31]
  inhibition: Active

## CC1CCC(CCCC(N)=O)C1(C)C (centres undefined)
[30]; Homo sapiens
  Activity: inactive
[31]
  inhibition: inactive
[32]
  inhibition: inactive
